From PubChem BioAssay (NCI)
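Assay format: 96-well plates, 48-hour exposure. GI50 marks 50% less growth. The concentration for full growth arrest is given as TGI.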

Legend:
Experiment in all cases: inhibition of tumour cell growth, NCI panel, 48 h; in the data active = GI50 below about 0.43 µM; inactive = the rest
U251 CNS = tested on: U251 CNS
NCI-H460 lung = tested on: NCI-H460 lung
SF-295 CNS = tested on: SF-295 CNS
MALME-3M melanoma = tested on: MALME-3M melanoma
RPMI-8226 leukemia = tested on: RPMI-8226 leukemia
NCI-H23 lung = tested on: NCI-H23 lung
NCI-H522 lung = tested on: NCI-H522 lung
786-0 renal = tested on: 786-0 renal
RXF 393 renal = tested on: RXF 393 renal
MDA-MB-231 breast = tested on: MDA-MB-231 breast

COc1ccc(-c2cc(-c3ccco3)c(C#N)c(=O)n2C2OC(OC(=O)c3ccccc3)C(OC(=O)c3ccccc3)C2OC(=O)c2ccccc2)cc1 (stereo not given)
> 100 µM: TGI (U251 CNS) | TGI (NCI-H460 lung) | TGI (SF-295 CNS) | TGI (MALME-3M melanoma) | TGI (RPMI-8226 leukemia) | TGI (NCI-H23 lung) | TGI (NCI-H522 lung) | TGI (786-0 renal)
63.7 µM: TGI (RXF 393 renal)

COC(=O)c1ccc2n[se]nc2c1
> 100 µM: TGI (U251 CNS) | TGI (NCI-H460 lung) | TGI (SF-295 CNS) | TGI (MALME-3M melanoma) | TGI (RPMI-8226 leukemia) | TGI (NCI-H23 lung) | TGI (NCI-H522 lung) | TGI (786-0 renal) | TGI (RXF 393 renal)

CC(C)CCC[C@@H](C)C1CCC2[C@@H]3CC=C4C[C@@H](OC(=O)CCC(=O)NCC[N+](C)(C)CCCS(=O)(=O)[O-])CC[C@]4(C)C3CC[C@@]21C (stereo not given in full)
30.9 µM: TGI (NCI-H460 lung)
31.6 µM: TGI (SF-295 CNS)
73 µM: TGI (NCI-H522 lung)
43.7 µM: TGI (MALME-3M melanoma)
45.9 µM: TGI (RPMI-8226 leukemia)
24.2 µM: TGI (RXF 393 renal)
33.9 µM: TGI (U251 CNS)
67.9 µM: TGI (786-0 renal)

COc1cc(C=C2C(=O)OC(C)(C)OC2=O)cc(OC)c1OC
> 100 µM: TGI (U251 CNS) | TGI (NCI-H460 lung) | TGI (SF-295 CNS) | TGI (MALME-3M melanoma) | TGI (RPMI-8226 leukemia) | TGI (NCI-H23 lung) | TGI (NCI-H522 lung) | TGI (786-0 renal) | TGI (RXF 393 renal)

O=c1c2ccccc2oc2nccnc12
> 100 µM: TGI (U251 CNS) | TGI (NCI-H460 lung) | TGI (SF-295 CNS) | TGI (MALME-3M melanoma) | TGI (RPMI-8226 leukemia) | TGI (NCI-H23 lung) | TGI (786-0 renal) | TGI (RXF 393 renal)

Cc1ccc(NC(=O)C(=O)C2C(=O)C3=C(CC2(C)C)NC2C=CC=CC2S3)c(C)c1 (stereo not given)
> 100 µM: TGI (U251 CNS) | TGI (NCI-H460 lung) | TGI (SF-295 CNS) | TGI (MDA-MB-231 breast) | TGI (NCI-H23 lung) | TGI (NCI-H522 lung) | TGI (786-0 renal) | TGI (RXF 393 renal)

O=C(CC1Sc2ccccc2NC1=O)Nc1ccc([N+](=O)[O-])cc1[N+](=O)[O-] (stereo not given)
26.3 µM: TGI (RXF 393 renal)
40.6 µM: TGI (MALME-3M melanoma)
30.3 µM: TGI (U251 CNS)
27.2 µM: TGI (NCI-H23 lung)
34.2 µM: TGI (SF-295 CNS)
59.5 µM: TGI (NCI-H460 lung)
31.7 µM: TGI (786-0 renal)
32.3 µM: TGI (RPMI-8226 leukemia)

N#CC1(Cc2ccccc2Cl)c2ccccc2C=CN1C(=O)c1ccccc1 (stereo not given)
> 100 µM: TGI (U251 CNS) | TGI (SF-295 CNS) | TGI (MALME-3M melanoma) | TGI (RPMI-8226 leukemia) | TGI (NCI-H23 lung) | TGI (NCI-H522 lung) | TGI (786-0 renal) | TGI (RXF 393 renal)

COC(=O)c1nc(N)[nH]c(=O)c1-c1ccc(Cl)cc1
> 100 µM: TGI (U251 CNS) | TGI (NCI-H460 lung) | TGI (SF-295 CNS) | TGI (MALME-3M melanoma) | TGI (RPMI-8226 leukemia) | TGI (NCI-H23 lung) | TGI (NCI-H522 lung) | TGI (786-0 renal) | TGI (RXF 393 renal)

COc1ccc(/C=N\N2C(=O)Cc3ccccc32)cc1
> 100 µM: TGI (U251 CNS) | TGI (NCI-H460 lung) | TGI (SF-295 CNS) | TGI (MALME-3M melanoma) | TGI (RPMI-8226 leukemia) | TGI (NCI-H23 lung) | TGI (786-0 renal)

COc1cc2c3c(c1OC)C1(C=CC(=O)C=C1)CC3N(C(=O)OC(C)(C)C(Cl)(Cl)Cl)CC2 (stereo not given)
22.4 µM: TGI (U251 CNS)
30.8 µM: TGI (NCI-H460 lung)
9.04 µM: TGI (RPMI-8226 leukemia)
28.8 µM: TGI (786-0 renal)
27.2 µM: TGI (MALME-3M melanoma)
32.4 µM: TGI (NCI-H23 lung)
18.5 µM: TGI (RXF 393 renal)
23.2 µM: TGI (NCI-H522 lung)
28.9 µM: TGI (SF-295 CNS)

Clc1cc(Cl)c2n[se]nc2c1
> 100 µM: TGI (U251 CNS) | TGI (NCI-H460 lung) | TGI (SF-295 CNS) | TGI (MALME-3M melanoma) | TGI (RPMI-8226 leukemia) | TGI (NCI-H23 lung) | TGI (NCI-H522 lung) | TGI (786-0 renal) | TGI (RXF 393 renal)

COc1cc(OC)cc(-c2n[nH]nc2-c2ccc3c(c2)OCO3)c1
31.5 µM: TGI (MDA-MB-231 breast)
28.7 µM: TGI (NCI-H460 lung)
> 100 µM: TGI (NCI-H23 lung)
active: GI50 (U251 CNS) 0.302 µM | GI50 (NCI-H460 lung) 0.335 µM | GI50 (SF-295 CNS) 0.0989 µM | GI50 (RPMI-8226 leukemia) 0.326 µM
63.5 µM: TGI (786-0 renal)
3.61 µM: TGI (SF-295 CNS)
11.2 µM: TGI (U251 CNS)
inactive: GI50 (MDA-MB-231 breast) 0.529 µM | GI50 (NCI-H23 lung) 0.768 µM | GI50 (786-0 renal) 0.618 µM
22.1 µM: TGI (RPMI-8226 leukemia)

COC1=C(C(=O)OC(C)(C)C)C23CCCCC2(C(C(=O)OC(C)(C)C)=C(OC)C3C(=O)OC(C)(C)C)C1C(=O)OC(C)(C)C (stereo not given)
> 100 µM: TGI (U251 CNS) | TGI (NCI-H460 lung) | TGI (SF-295 CNS) | TGI (MALME-3M melanoma) | TGI (RPMI-8226 leukemia) | TGI (NCI-H23 lung) | TGI (NCI-H522 lung) | TGI (786-0 renal) | TGI (RXF 393 renal)

COC(=O)CC[C@@H](NC(=O)C(C)NC(=O)COC1C(O)C(COC(=O)CCCCCCCCCCNC(=O)c2ccc([N+](=O)[O-])c3[nH]c4cc(Br)ccc4c(=O)c23)OC(OCc2ccccc2)C1NC(C)=O)C(N)=O (stereo not given in full)
> 100 µM: TGI (U251 CNS) | TGI (NCI-H460 lung) | TGI (SF-295 CNS) | TGI (MALME-3M melanoma) | TGI (RPMI-8226 leukemia) | TGI (NCI-H23 lung) | TGI (NCI-H522 lung) | TGI (786-0 renal)
80.3 µM: TGI (RXF 393 renal)

O=C(Nc1ccc(Cl)cc1Cl)c1c/c(=N\O)c2ccc(O)cc2o1
> 100 µM: TGI (U251 CNS) | TGI (NCI-H460 lung) | TGI (SF-295 CNS) | TGI (MALME-3M melanoma) | TGI (RPMI-8226 leukemia) | TGI (NCI-H23 lung) | TGI (NCI-H522 lung) | TGI (786-0 renal) | TGI (RXF 393 renal)

CC1=NN(C(=O)CC(=O)Nc2ccccc2)C(=O)C1N=Nc1ccc(S(N)(=O)=O)cc1 (stereo not given)
> 100 µM: TGI (U251 CNS) | TGI (NCI-H460 lung) | TGI (SF-295 CNS) | TGI (MALME-3M melanoma) | TGI (RPMI-8226 leukemia) | TGI (NCI-H23 lung) | TGI (NCI-H522 lung) | TGI (786-0 renal) | TGI (RXF 393 renal)

Cc1cccc2c1NC(c1c(C)[nH]c3ccccc13)C2 (stereo not given)
> 100 µM: TGI (U251 CNS) | TGI (NCI-H460 lung) | TGI (SF-295 CNS) | TGI (MALME-3M melanoma) | TGI (RPMI-8226 leukemia) | TGI (NCI-H23 lung) | TGI (NCI-H522 lung) | TGI (786-0 renal) | TGI (RXF 393 renal)

CCC(C)CNC1=C(NC(C)=O)C(=O)c2ccccc2C1=O (stereo not given)
> 100 µM: TGI (U251 CNS) | TGI (NCI-H460 lung) | TGI (SF-295 CNS) | TGI (MALME-3M melanoma) | TGI (NCI-H23 lung) | TGI (NCI-H522 lung) | TGI (786-0 renal) | TGI (RXF 393 renal)

COc1ccc2c(c1)C(CCN)C(=O)N2 (stereo not given)
> 100 µM: TGI (U251 CNS) | TGI (NCI-H460 lung) | TGI (SF-295 CNS) | TGI (MALME-3M melanoma) | TGI (RPMI-8226 leukemia) | TGI (NCI-H23 lung) | TGI (786-0 renal)

Nc1ccc(Cl)cc1.Nc1ccc(Cl)cc1.Nc1ccc(Cl)cc1.O=C([O-])C(=O)[O-].O=C([O-])C(=O)[O-].[H+].[Ru+5]
active: GI50 (SF-295 CNS) 0.127 µM | GI50 (RPMI-8226 leukemia) 0.147 µM
inactive: GI50 (U251 CNS) 0.938 µM | GI50 (NCI-H460 lung) 1.05 µM | GI50 (NCI-H23 lung) > 19.8 µM | GI50 (786-0 renal) 1.44 µM | GI50 (RXF 393 renal) > 100 µM
> 100 µM: TGI (U251 CNS) | TGI (NCI-H460 lung) | TGI (MALME-3M melanoma) | TGI (RPMI-8226 leukemia) | TGI (NCI-H23 lung) | TGI (NCI-H522 lung) | TGI (786-0 renal) | TGI (RXF 393 renal)
